# Laboratory results taken from patent US10190093B2, “Artificial oocyte activation” (The Curators of the University of Missouri, priority 2013, dated 2019).
# “Also recorded” adds a separate entry of the source.
# Experiments:
# MII oocytes = assay: Intracellular calcium measurement (fura-2); type: cell-based, pig; conditions: oocytes exposed to TPEN 5, 10, and 200 μM
# Description: The zonae pellucidae were removed after maturation and zona-free oocytes were loaded with the Ca^2+ indicator dye, fura-2. For this purpose, they were incubated in the presence of […] of the acetoxymethyl ester form of the dye and 0.02% pluronic F-127 for 40-50 min (both from Invitrogen). The dye loaded oocytes were transferred into a chamber with a cover-glass bottom and the chamber was then placed on the heated stage of an inverted microscope. Changes in the intracellular free Ca^2+ concentration were recorded using InCytIm2, a dual-wavelength fluorescence imaging system (Intracellular Imaging, Inc.; Cincinnati, Ohio). During measurements the emitted fluorescence was detected at 510 nm after exciting the dye alternately at 340 and 380 nm. The ratio of the two emitted fluorescence intensities was calculated and the data are presented as fluorescence ratio values. Ratios of 1.0 and 5.0 correspond to about 100 and 1,200 nM Ca^2+, respectively. In each treatment group the measurements were repeated at least 5 times using different oocytes.
# [1] = system: Metaphase II porcine oocytes; assay: Parthenogenetic activation of porcine oocytes by TPEN alone; type: cell-based, pig
# Description: Oocytes were obtained from either pre-pubertal gilt ovaries from an abattoir (Farmland Foods Inc., Milan, Mo.), or sow-derived oocytes that were purchased from Applied Reproductive Technology (Madison, Wis.). Immature oocytes from gilt ovaries were aspirated from medium size (3-6 mm) follicles by using an 18 gauge hypodermic needle attached to a 10 mL syringe. Oocytes with evenly dark cytoplasm and intact surrounding cumulus cells were then selected for maturation. Around 50 cumulus oocyte complexes were place in a well containing 500 μL of maturation medium, TCM 199 (Invitrogen, Grand Island, N.Y.) with 3.05 mM glucose, 0.91 mM sodium pyruvate, 0.57 mM cysteine, 10 ng/mL epidermal growth factor (EGF), 0.5 mg/mL luteinizing hormone (LH), 0.5 mg/mL follicle stimulating hormone (FSH), 10 ng/mL gentamicin (APP Pharm, Schaumburg, Ill.), and 0.1% polyvinyl alcohol (PVA) for 42-44 hr at 38.5° C., 5% CO2, in humidified air. The oocytes from sows were shipped overnight in maturation medium (TCM199 with 2.9 mM Hepes, […], 10 ng/mL EGF, 0.5 mg/mL p-FSH, 0.91 mM pyruvate, 0.5 mM cysteine, 10% porcine follicular fluid, 25 ng/mL gentamicin) and transferred into fresh medium at 24 hr. At the end of the maturation, the surrounding cumulus cells were removed from the oocytes by vortexing for 3 min in the presence of 0.1% hyaluronidase. Oocytes with a visible polar body were selected in manipulation medium (TCM199 with 0.6 mM NaHCO3, 2.9 mM Hepes, 30 mM NaCl, 10 ng/mL gentamicin, and 3 mg/mL bovine serum albumin [BSA]; and osmolarity of 305) and then used for the experiments. Different oocyte activation methods were used for the experiments. As conventional activation methods, either electrical or chemical activation was used. For electrical activation, mature oocytes were activated in activation medium (0.3 M mannitol, 1.0 mM CaCl2, 0.1 mM MgCl2, and 0.5 mM Hepes) by two direct-current (DC) pulses (1-sec interval) at 1.2 kV/cm for 30 μsec (using BTX Electro Cell Manipulator, Harvard Apparatus, Holliston, Mass.). […] For TPEN mediated activation, mature oocytes were incubated in TL-Hepes media with various concentrations of TPEN for different durations. […] At the end of the culture, where applicable, the frequency of cleaved embryos and blastocysts, and total cell number in the blastocysts were recorded. Hoechst 33342 (1.2 mg/mL) was used to stain nuclei and the embryos were then evaluated by epi-fluorescence microscopy. Metaphase II porcine oocytes were incubated in vitro with TPEN to determine if the concentration/duration of 100 μM of TPEN for 45 min, as described in the mouse study by Suzuki, et al. (Development 137, 2659-2669, 2010) had any effect on pig oocytes. […] A wide range of TPEN concentrations/durations was tested to identify an optimum concentration of TPEN that can activate pig oocytes; 100 μM, 200 μM, and 250 μM and 30 min-2.5 hours of duration were tested (Table 1). Optimum embryo development was achieved by using 200 μM TPEN for 30 min.
compound,measurement,setting,value
"c1ccc(CN(CCN(Cc2ccccn2)Cc2ccccn2)Cc2ccccn2)nc1 [TPEN, N,N,N′,N′-tetrakis(2-pyridylmethyl)ethane-1,2-diamine]",intracellular Ca2+ increase,MII oocytes,does not induce a Ca^2+ increase; also recorded: no Ca^2+ increase was detected
same,Frequency of forming blastocysts on day 7,[1]; 100 μM of TPEN for 45 min,13%
same,blastocyst formation on day 5,[1]; 100 μM of TPEN for 45 min,No blastocyst formation was observed
same,expanded blastocysts on day 7,[1]; 100 μM of TPEN for 45 min,no expanded blastocysts
same,toxic effect on embryo development,[1]; 250 μM TPEN over 2.5 hours,toxic effect
same,% blastocysts,"[1]; TPEN alone, 100 μM, 2 hr",12.0%
same,% blastocysts,"[1]; TPEN alone, 200 μM, 30 min",23.0%
same,total number of nuclei in blastocysts,"[1]; TPEN alone, 200 μM, 30 min",27.2±1.92
same,% blastocysts,"[1]; TPEN alone, 200 μM, 1 hr",20.0%
same,% blastocysts,"[1]; TPEN alone, 250 μM, 2 hr",10.0%
